Measurements from paper PMC11378028 (RSC Advances, 2024).
Converted amounts (≈) assume the structure as drawn. Values belong to the compound of their own block, whether it stands above or below them.

Experiments:
S. aureus DNA gyrase = S. aureus DNA gyrase (Staphylococcus aureus, UniProt P0A0K8); experiment: DNA gyrase supercoiling plate assay; assay type: biochemical; settings: read-out: RA (residual activity) S. aureus gyrase
[1] = tested on: K. pneumoniae ATCC 700603; experiment: MIC, broth microdilution; assay type: cell-based; settings: Klebsiella pneumoniae, ATCC700603, read-out: MIC K. pneumoniae ATCC 700603
K. aerogenes ATCC 13408 = experiment: MIC, broth microdilution; assay type: cell-based; settings: Klebsiella aerogenes, ATCC13408, read-out: MIC K. aerogenes ATCC 13408
E. coli DNA gyrase = E. coli DNA gyrase (Escherichia coli, UniProt P0AES6); experiment: DNA gyrase supercoiling plate assay; assay type: biochemical; settings: IC50 E. coli gyrase, supercoiling assay
S. aureus ATCC 29213 [2] = experiment: MIC, broth microdilution; assay type: cell-based, Staphylococcus aureus; settings: for MIC: Staphylococcus aureus, ATCC29213, read-out: MIC S. aureus ATCC 29213, broth microdilution
A. baumannii ATCC 19606 = experiment: MIC, broth microdilution; assay type: cell-based; settings: Acinetobacter baumannii, ATCC19606, read-out: MIC A. baumannii ATCC 19606
[3] = target: S. aureus topoisomerase IV (Staphylococcus aureus, UniProt P0C1S7); experiment: topoisomerase IV relaxation plate assay; assay type: biochemical; settings: read-out: RA (residual activity) S. aureus topo IV
E. faecium ATCC 35667 = experiment: MIC, broth microdilution; assay type: cell-based
E. coli topoisomerase IV = E. coli topoisomerase IV (Escherichia coli, UniProt P20083); experiment: topoisomerase IV relaxation plate assay; assay type: biochemical
E. coli topoisomerase IV, sequence (P20083 whole entry): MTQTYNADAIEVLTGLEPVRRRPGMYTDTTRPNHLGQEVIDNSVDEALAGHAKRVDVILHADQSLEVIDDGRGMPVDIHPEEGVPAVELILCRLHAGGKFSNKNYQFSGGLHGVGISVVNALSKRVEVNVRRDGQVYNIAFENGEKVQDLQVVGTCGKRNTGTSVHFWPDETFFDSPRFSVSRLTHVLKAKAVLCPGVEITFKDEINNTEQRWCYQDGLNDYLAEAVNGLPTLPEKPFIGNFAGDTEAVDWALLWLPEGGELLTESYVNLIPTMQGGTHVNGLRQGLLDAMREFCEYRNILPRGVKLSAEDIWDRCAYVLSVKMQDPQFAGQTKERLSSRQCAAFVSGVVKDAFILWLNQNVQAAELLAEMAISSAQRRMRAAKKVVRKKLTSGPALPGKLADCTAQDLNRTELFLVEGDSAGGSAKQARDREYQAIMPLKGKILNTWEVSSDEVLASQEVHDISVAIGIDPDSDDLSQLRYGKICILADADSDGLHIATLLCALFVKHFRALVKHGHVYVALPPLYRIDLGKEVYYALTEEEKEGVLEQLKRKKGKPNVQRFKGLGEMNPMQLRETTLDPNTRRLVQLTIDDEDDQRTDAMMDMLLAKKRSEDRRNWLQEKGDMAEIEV
E. coli topoisomerase IV, sequence (P0AFI2 whole entry partner): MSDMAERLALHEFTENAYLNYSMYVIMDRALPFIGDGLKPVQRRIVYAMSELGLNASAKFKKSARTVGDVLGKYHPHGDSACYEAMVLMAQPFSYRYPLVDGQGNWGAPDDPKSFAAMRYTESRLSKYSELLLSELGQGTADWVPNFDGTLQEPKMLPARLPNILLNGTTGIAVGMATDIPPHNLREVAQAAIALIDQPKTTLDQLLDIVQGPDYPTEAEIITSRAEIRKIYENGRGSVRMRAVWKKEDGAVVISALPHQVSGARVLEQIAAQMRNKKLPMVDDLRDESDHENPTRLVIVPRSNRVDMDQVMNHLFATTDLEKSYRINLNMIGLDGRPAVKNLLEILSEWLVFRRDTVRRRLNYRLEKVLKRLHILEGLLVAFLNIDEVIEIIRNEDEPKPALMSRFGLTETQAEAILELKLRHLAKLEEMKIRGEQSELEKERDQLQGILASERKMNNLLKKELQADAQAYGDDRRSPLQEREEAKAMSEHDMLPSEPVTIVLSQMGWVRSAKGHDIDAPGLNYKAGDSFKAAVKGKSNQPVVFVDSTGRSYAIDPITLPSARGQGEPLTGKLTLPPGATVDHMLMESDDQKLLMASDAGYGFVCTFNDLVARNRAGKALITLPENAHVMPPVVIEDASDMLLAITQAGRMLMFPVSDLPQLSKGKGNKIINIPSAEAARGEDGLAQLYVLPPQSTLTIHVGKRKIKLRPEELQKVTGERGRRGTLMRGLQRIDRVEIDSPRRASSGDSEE

P. aeruginosa ATCC 27853 = experiment: MIC, broth microdilution; assay type: cell-based; settings: Pseudomonas aeruginosa, ATCC27853, read-out: MIC P. aeruginosa ATCC 27853
E. coli ATCC 25922 = experiment: MIC, broth microdilution; assay type: cell-based; settings: Escherichia coli, ATCC25922, read-out: MIC E. coli ATCC 25922
[4] = target: human DNA topoisomerase IIα (Homo sapiens, UniProt P11388); experiment: human DNA topoisomerase IIα inhibition; assay type: biochemical
human DNA topoisomerase IIα, sequence (P11388 whole entry): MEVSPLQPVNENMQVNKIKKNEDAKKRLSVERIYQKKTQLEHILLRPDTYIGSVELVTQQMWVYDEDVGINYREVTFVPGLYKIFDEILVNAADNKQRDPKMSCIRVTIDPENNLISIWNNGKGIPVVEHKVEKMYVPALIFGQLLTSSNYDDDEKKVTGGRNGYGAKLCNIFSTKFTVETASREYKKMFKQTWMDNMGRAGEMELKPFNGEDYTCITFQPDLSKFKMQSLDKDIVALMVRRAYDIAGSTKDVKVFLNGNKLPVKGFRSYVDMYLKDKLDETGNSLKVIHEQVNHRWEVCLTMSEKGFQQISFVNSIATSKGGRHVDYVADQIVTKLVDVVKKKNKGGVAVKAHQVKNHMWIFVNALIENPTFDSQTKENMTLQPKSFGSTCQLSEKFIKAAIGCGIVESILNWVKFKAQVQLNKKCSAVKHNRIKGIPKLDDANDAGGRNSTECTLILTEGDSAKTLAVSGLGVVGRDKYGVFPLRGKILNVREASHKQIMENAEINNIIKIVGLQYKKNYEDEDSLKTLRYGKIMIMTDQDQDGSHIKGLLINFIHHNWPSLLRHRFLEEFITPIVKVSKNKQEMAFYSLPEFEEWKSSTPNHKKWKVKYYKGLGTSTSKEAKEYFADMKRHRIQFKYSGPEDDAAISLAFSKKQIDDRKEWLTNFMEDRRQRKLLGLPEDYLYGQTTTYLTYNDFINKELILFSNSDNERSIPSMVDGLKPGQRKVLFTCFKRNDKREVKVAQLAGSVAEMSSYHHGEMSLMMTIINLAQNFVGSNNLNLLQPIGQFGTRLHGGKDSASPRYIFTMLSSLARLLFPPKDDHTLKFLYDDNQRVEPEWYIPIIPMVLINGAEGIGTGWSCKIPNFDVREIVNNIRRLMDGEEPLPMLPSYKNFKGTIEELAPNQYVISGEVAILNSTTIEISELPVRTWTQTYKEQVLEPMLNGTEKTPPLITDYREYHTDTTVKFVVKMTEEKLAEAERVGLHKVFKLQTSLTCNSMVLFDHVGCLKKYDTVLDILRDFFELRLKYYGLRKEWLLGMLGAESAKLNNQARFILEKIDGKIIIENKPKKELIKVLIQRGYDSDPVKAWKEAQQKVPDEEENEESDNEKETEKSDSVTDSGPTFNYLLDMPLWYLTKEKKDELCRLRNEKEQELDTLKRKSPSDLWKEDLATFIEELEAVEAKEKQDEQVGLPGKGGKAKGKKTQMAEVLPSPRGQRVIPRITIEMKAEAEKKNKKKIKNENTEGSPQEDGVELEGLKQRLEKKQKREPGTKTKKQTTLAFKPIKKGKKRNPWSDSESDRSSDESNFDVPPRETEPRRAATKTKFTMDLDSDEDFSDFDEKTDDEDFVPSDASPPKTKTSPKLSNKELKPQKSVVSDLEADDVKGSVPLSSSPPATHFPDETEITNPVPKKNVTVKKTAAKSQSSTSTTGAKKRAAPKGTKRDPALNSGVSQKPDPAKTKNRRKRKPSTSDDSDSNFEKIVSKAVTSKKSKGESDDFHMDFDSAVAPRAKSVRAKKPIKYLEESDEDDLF

K. pneumoniae K9–K25 = experiment: MIC against fluoroquinolone-resistant clinical isolate; assay type: cell-based; settings: Klebsiella pneumoniae, read-out: MIC K. pneumoniae K9–K25
P. aeruginosa DNA gyrase = P. aeruginosa DNA gyrase (Pseudomonas aeruginosa, UniProt Q9I7C2); experiment: DNA gyrase supercoiling assay; assay type: biochemical
K. pneumoniae ATCC 10031 [5] = experiment: MIC, broth microdilution; assay type: cell-based; settings: Klebsiella pneumoniae, ATCC10031, read-out: MIC K. pneumoniae ATCC 10031
[6] = tested on: S. aureus ATCC 43300 (MRSA); experiment: MIC, broth microdilution; assay type: cell-based; settings: Staphylococcus aureus, ATCC43300|MRSA, read-out: MIC S. aureus ATCC 43300 (MRSA)
MRSA clinical isolate-2 = experiment: MIC against fluoroquinolone-resistant clinical isolate; assay type: cell-based; settings: Staphylococcus aureus, read-out: MIC MRSA clinical isolate-2
A. baumannii DNA gyrase = A. baumannii DNA gyrase (Acinetobacter baumannii, UniProt A0ABX6CA01); experiment: DNA gyrase supercoiling assay; assay type: biochemical
A. baumannii DNA gyrase, sequence (A0ABX6CA01 1-822): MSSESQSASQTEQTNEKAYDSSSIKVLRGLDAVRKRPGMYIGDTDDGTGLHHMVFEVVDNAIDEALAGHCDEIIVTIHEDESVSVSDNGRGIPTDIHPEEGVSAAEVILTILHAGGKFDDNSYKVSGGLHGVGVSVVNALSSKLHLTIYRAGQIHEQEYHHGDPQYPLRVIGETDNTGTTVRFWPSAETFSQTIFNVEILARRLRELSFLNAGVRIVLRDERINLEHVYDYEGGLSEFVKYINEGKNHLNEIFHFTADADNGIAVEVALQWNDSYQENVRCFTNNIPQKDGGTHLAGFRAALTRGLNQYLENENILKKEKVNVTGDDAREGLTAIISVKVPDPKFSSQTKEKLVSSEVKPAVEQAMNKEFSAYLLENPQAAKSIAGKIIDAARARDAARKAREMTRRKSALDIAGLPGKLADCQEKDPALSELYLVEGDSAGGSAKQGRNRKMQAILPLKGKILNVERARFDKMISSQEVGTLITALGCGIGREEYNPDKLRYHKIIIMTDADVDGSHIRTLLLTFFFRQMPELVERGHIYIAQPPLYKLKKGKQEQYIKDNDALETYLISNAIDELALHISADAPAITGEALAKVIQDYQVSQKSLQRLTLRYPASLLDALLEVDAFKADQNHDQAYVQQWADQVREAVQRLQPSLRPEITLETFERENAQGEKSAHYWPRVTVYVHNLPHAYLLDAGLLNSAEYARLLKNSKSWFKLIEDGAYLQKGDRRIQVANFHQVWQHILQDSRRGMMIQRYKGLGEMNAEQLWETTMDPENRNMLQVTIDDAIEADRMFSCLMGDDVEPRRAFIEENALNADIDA
A. baumannii DNA gyrase, sequence (A0ABX6CII0 1-904 partner): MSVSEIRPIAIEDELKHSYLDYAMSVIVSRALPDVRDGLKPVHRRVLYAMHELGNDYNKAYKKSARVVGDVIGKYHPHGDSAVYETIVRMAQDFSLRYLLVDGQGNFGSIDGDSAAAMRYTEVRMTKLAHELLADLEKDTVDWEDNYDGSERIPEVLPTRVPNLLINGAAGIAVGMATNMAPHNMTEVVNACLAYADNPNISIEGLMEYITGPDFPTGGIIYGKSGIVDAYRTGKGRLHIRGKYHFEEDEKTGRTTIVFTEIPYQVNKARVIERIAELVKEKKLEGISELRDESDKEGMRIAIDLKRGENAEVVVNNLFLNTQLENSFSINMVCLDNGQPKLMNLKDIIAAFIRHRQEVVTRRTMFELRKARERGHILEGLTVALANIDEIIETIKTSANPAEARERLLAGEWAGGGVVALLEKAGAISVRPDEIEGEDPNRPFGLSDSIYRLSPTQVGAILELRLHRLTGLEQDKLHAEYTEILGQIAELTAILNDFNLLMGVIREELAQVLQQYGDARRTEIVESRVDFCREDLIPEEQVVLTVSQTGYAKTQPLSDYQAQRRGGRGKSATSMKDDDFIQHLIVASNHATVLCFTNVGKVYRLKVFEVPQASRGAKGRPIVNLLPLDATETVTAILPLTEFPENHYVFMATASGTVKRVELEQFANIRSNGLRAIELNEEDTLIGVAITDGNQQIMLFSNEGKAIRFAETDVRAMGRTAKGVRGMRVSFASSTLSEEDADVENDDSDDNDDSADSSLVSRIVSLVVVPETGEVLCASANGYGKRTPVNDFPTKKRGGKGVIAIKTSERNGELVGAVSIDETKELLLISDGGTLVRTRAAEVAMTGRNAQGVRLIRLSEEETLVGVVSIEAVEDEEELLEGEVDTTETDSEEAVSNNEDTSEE

[7] = tested on: E. spp. cloacae ATCC 13047; experiment: MIC, broth microdilution; assay type: cell-based; settings: read-out: MIC E. spp. cloacae ATCC 13047
MRSA clinical isolate-1 = experiment: MIC against fluoroquinolone-resistant clinical isolate; assay type: cell-based; settings: Staphylococcus aureus, read-out: MIC MRSA clinical isolate-1
K. pneumoniae SE K14 = experiment: as above; assay type: cell-based; settings: Klebsiella pneumoniae, SEK14, read-out: MIC K. pneumoniae SE K14
E. faecalis ATCC 29212 = experiment: MIC, broth microdilution; assay type: cell-based; settings: Enterococcus faecalis, ATCC29212, read-out: MIC E. faecalis ATCC 29212
K. pneumoniae NCTC 13440 = experiment: MIC against fluoroquinolone-resistant clinical isolate; assay type: cell-based; settings: Klebsiella pneumoniae, NCTC13440, read-out: MIC K. pneumoniae NCTC 13440
S. aureus ATCC 29213 [8] = experiment: spontaneous frequency of resistance; assay type: cell-based, Staphylococcus aureus
K. pneumoniae ATCC 10031 [9] = experiment: spontaneous frequency of resistance; assay type: cell-based, Klebsiella pneumoniae
K. pneumoniae SE K13 = experiment: MIC against fluoroquinolone-resistant clinical isolate; assay type: cell-based; settings: Klebsiella pneumoniae, SEK13, read-out: MIC K. pneumoniae SE K13
[10] = tested on: S. aureus ATCC 29213 adapted lines; experiment: MIC of adapted lines; settings: colonies from frequency of resistance plates
[11] = read-out: RA (residual activity) Human topo IIα

SMILES: Cc1[nH]c(C(=O)Nc2ccc(C(=O)O)cc2N2CCN(C(=O)OC(C)(C)C)CC2)c(Cl)c1Cl [Compound 18a, 3-(4-(tert-Butoxycarbonyl)piperazin-1-yl)-4-(3,4-dichloro-5-methyl-1H-pyrrole-2-carboxamido)benzoic acid]
remaining activity at 1 µM (S. aureus DNA gyrase): 54%
MIC [1]: > 32 µg/mL
MIC (K. aerogenes ATCC 13408): > 32 µg/mL
IC50 (E. coli DNA gyrase): 159 nM
MIC (S. aureus ATCC 29213 [2]): 4 to 32 µg/mL (≈ 8.04 to 64.3 µM)
MIC S. aureus ATCC 29213 (S. aureus ATCC 29213 [2]; broth microdilution): 4 µg/mL (≈ 8.04 µM)
MIC (A. baumannii ATCC 19606): > 32 µg/mL
remaining activity at 1 µM [3]: 21%
MIC E. faecium ATCC 35667 (E. faecium ATCC 35667): 16 µg/mL (≈ 32.2 µM)
remaining activity at 1 µM (E. coli topoisomerase IV; read-out: RA (residual activity) E. coli topo IV): 99%
MIC (P. aeruginosa ATCC 27853): > 32 µg/mL
MIC (E. coli ATCC 25922): > 32 µg/mL

remaining activity at 0.1 µM (S. aureus DNA gyrase): 28%
MIC [1]: > 32 µg/mL
MIC (K. aerogenes ATCC 13408): > 32 µg/mL
IC50 (E. coli DNA gyrase): 6.34 nM
MIC (A. baumannii ATCC 19606): > 32 µg/mL
remaining activity at 1 µM [3]: 0%
MIC E. faecium ATCC 35667 (E. faecium ATCC 35667): 32 µg/mL
IC50 (E. coli topoisomerase IV): 143 nM
MIC (P. aeruginosa ATCC 27853): > 32 µg/mL
remaining activity at 100 µM [4, 11]: 28%
MIC (E. coli ATCC 25922): > 32 µg/mL
SMILES: Cc1[nH]c(C(=O)Nc2ccc(C(=O)O)cc2N2CCCC(CN)C2)c(Cl)c1Cl.Cl (stereo not shown) [Compound 20i, (1-(5-Carboxy-2-(3,4-dichloro-5-methyl-1H-pyrrole-2-carboxamido)phenyl)piperidin-3-yl)methanaminium chloride]

SMILES: Cc1[nH]c(C(=O)Nc2ccc(-c3n[nH]c(=O)o3)cc2N2CC[C@H](N)C2)c(Cl)c1Cl.Cl [Compound 23b, (S)-1-(2-(3,4-Dichloro-5-methyl-1H-pyrrole-2-carboxamido)-5-(5-oxo-4,5-dihydro-1,3,4-oxadiazol-2-yl)phenyl)pyrrolidin-3-aminium chloride]
MIC (K. pneumoniae K9–K25): > 64 µg/mL
IC50 (P. aeruginosa DNA gyrase): 3.63 nM
MIC [1]: > 32 µg/mL
MIC (K. pneumoniae ATCC 10031 [5]): 0.0625 µg/mL
MIC [6]: 2 µg/mL
MIC (K. aerogenes ATCC 13408): > 32 µg/mL
MIC (S. aureus ATCC 29213 [2]): 1 µg/mL
MIC (MRSA clinical isolate-2): 2 µg/mL
IC50 (A. baumannii DNA gyrase): 15.3 nM
MIC [7]: 32 µg/mL
MIC (P. aeruginosa ATCC 27853): 32 µg/mL
IC50 [4]: 86300 nM
MIC (MRSA clinical isolate-1): 4 µg/mL
MIC (K. pneumoniae SE K14): > 64 µg/mL
MIC (E. faecalis ATCC 29212): 1 µg/mL
MIC (K. pneumoniae NCTC 13440): > 64 µg/mL

SMILES: Cc1[nH]c(C(=O)Nc2ccc(-c3n[nH]c(=O)o3)cc2N2CCC[C@H](N)C2)c(Cl)c1Cl.Cl [Compound 23c, (S)-1-(2-(3,4-Dichloro-5-methyl-1H-pyrrole-2-carboxamido)-5-(5-oxo-4,5-dihydro-1,3,4-oxadiazol-2-yl)phenyl)piperidin-3-aminium chloride]
MIC (K. pneumoniae K9–K25): > 64 µg/mL
resistance-proneness compared to novobiocin (S. aureus ATCC 29213 [8]): significantly less resistance-prone compared to novobiocin
MIC [1]: > 32 µg/mL
MIC (K. pneumoniae ATCC 10031 [5]): 0.25 µg/mL
MIC [6]: 2 µg/mL
MIC (K. aerogenes ATCC 13408): > 32 µg/mL
MIC (S. aureus ATCC 29213 [2]): 2 µg/mL
MIC (A. baumannii ATCC 19606): 4 µg/mL
resistance-proneness compared to novobiocin (K. pneumoniae ATCC 10031 [9]): significantly less resistance-prone compared to novobiocin
MIC (MRSA clinical isolate-2): 2 µg/mL
MIC (K. pneumoniae SE K13): 32 µg/mL
MIC [7]: > 64 µg/mL
IC50 (E. coli topoisomerase IV): 448 nM
remaining activity at 50 µM [4, 11]: 90%
change in MIC values compared to the ancestor [10]: 4 fold
MIC (MRSA clinical isolate-1): 4 µg/mL
MIC (K. pneumoniae SE K14): > 64 µg/mL
MIC (E. faecalis ATCC 29212): 2 µg/mL
MIC (K. pneumoniae NCTC 13440): > 64 µg/mL
